Data on 42 compounds can be found in US10851096B2, “Aryl and heteroaryl amides for use as anti-proliferative, anti-thrombotic, and anti-viral agents” (Rutgers, The State University of New Jersey, priority 2016, dated 2020).

One assay addresses T1, hAxl/IFN-γR1 (Homo sapiens, UniProt P30530).
T1 construct: containing human Axl extracellular domains and transmembrane and intracellular domains of human IFN-γR1; human IFN-γR1 transmembrane and intracellular domains (fusion partner); expressed in transfected cells
T1 sequence (P30530 26-451 limits assumed): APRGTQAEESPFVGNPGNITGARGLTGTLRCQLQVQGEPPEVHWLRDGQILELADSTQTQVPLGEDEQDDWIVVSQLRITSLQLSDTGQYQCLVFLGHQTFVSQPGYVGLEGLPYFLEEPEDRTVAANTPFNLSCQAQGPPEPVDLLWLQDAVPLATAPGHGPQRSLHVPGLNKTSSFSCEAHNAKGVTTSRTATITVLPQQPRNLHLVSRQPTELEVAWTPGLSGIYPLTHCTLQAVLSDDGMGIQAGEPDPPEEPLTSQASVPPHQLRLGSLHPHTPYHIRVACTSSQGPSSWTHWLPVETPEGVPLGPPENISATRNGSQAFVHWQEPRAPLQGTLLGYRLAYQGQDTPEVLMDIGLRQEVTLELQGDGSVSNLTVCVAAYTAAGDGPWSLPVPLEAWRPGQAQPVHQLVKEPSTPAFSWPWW
The assay is described as follows: hAxl/IFN-γR1 CHO reporter cell line assay, Gas6-induced activation (pSTAT1 immunoblot). It is filed as cell-based. On the procedure:
Stable HEK 293 cells secreting human Gas6 (clone 7.4.1) were allowed to achieve 70% confluence in a 10-cm plate. The complete medium with 10% FBS was then changed into serum free media in the presence of 10 µg/mL vitamin K1 (Phytonadione injectable emulsion from Hospira). After 72 hours, the Gas6 conditioned medium was collected, and validated for the presence of Gas6 and γ-carboxylation (by immunoblot) and activity of Gas6 (via activation of pSTAT1 in hAxl/γR1 cells).
Stable hAxl/IFN-γR1 CHO reporter cell lines (containing human Axl extracellular domains and transmembrane and intracellular domains of human IFN-γR1) were serum starved for 5 hrs±small molecule inhibitors and then stimulated with human Gas6 conditioned media±small molecule inhibitors for 30 minutes. For H1299 human non-small cell lung carcinoma and MDA-MB-231 human breast adenocarcinoma cell lines, the cells were serum starved overnight±small molecule inhibitors and stimulated with human Gas6 conditioned media±small molecule inhibitors for 30 minutes. Whole cell lysates of hAxl/IFN-γR1, H1299 and MDA-MB-231 cells were prepared using HNTG buffer (20 mM HEPES, pH 7.5, 150 mM NaCl, 10% glycerol, 1% Triton X-100, 1 mM PMSF, 1 mM Na3VO4, 10 mM Na2MoO4, 1 mM EDTA, 10 mM NaF and 20 μg/mL aprotinin). The resulting lysates were resolved on SDS-PAGE gel and immunoblotted with respective antibodies.
Immunoblot data were obtained within a linear range of exposure, and intensities were quantified by ImageJ. The levels of hAxl/IFN-γR1 cells lines activation were measured by pSTAT1 whereas the levels of H1299 and MDA-MB-231 cell lines activation were measured by pAxl signal intensities. Blots were normalized to intensities of respective β-actin or GAPDH protein loading controls. The levels of pSTAT1 or pAxl activation induced by Gas6±small molecule inhibitors were plotted as a fold of enhancement or reduction over intensities induced by Gas6 alone.

For another assay, the target named is T2, Tyro3 (Homo sapiens, UniProt Q06418).
T2 sequence (Q06418 41-890): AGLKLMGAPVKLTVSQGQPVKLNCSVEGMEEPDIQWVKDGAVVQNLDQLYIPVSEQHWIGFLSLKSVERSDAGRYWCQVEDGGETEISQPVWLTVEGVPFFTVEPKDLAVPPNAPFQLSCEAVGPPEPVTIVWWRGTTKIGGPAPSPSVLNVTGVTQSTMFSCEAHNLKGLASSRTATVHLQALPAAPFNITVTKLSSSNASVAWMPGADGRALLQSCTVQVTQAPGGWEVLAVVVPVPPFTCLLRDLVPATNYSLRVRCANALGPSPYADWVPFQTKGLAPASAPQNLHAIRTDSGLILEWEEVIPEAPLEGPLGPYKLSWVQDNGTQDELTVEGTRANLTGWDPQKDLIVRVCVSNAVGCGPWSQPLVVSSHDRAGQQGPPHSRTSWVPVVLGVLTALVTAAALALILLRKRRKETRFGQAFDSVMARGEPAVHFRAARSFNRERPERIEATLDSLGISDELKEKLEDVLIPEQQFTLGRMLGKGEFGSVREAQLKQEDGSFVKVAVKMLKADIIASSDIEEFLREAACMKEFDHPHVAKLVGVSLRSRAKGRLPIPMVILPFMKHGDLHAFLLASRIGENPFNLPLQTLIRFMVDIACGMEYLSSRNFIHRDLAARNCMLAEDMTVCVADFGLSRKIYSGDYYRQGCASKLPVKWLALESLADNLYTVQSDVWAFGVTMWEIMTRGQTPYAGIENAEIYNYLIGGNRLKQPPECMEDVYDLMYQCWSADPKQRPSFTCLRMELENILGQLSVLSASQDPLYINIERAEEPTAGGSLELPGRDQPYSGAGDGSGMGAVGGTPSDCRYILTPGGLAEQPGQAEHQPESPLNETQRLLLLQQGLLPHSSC
The settings on record: cited from earlier work.

`Cc1cc(CSc2ncccc2C(=O)N2CCN(CC(=O)Nc3cccc(C)c3C)CC2)no1` [1K]: the remaining activity at 10 µM at hAxl/IFN-γR1 came out at 80%.

Regarding `Cc1cc(CSc2ccccc2C(=O)N2CCN(Cc3nc4cc(Cl)ccc4s3)CC2)no1` [Compound 21], the remaining activity at 10 µM at hAxl/IFN-γR1 came out at 8%.

With `Cc1cc(CSc2ccccc2C(=O)NCCNc2ccc(C#N)cc2)on1` [Compound 12], the remaining activity at 10 µM at hAxl/IFN-γR1 stood at 16%.

Take `Cc1ccc(NC(=O)CN2CCN(C(=O)c3ccccc3SCc3cc(C)on3)CC2)c(Cl)c1` [Compound 25]: the remaining activity at 10 µM on hAxl/IFN-γR1 was 27%.

As for `Cc1cc(CSc2ccccc2C(=O)NCCNc2ncc(C(F)(F)F)cc2Cl)on1` [Compound 28], the remaining activity at 10 µM at hAxl/IFN-γR1 is 6%.

Consider `O=C(c1ccccc1SCc1cccs1)N1CCN(Cc2ccncc2)CC1` [1O], for which, at hAxl/IFN-γR1, the remaining activity at 10 µM is 40%.

`Cc1cc(CSc2ccccc2C(=O)N2CCN(Cc3nc4cc(C(F)(F)F)ccc4s3)CC2)no1` [Compound 23]: the remaining activity at 10 µM at hAxl/IFN-γR1 is 8%.

On to `Cc1cc(CSc2ncccc2C(=O)N2CCN(CC(=O)Nc3ccccc3Cl)CC2)no1` [1L], for which the remaining activity at 10 µM on hAxl/IFN-γR1 stood at 20%.

As to `CCN(C(=O)CN1CCN(C(=O)c2ccccc2SCc2cc(C)on2)CC1)c1ccc(F)cc1` [Compound 22], the remaining activity at 10 µM on hAxl/IFN-γR1 was found to be 108%.

With `Cc1cc(CSc2ccccc2C(=O)N2CCN(CC(=O)Nc3ccc(Cl)cc3)CC2)no1` [Compound 17], the remaining activity at 10 µM on hAxl/IFN-γR1 stood at 79%.

On to `Cc1cc(CSc2ccccc2C(=O)N2CCN(CC(=O)N3CCOCC3)CC2)no1` [1B], for which the remaining activity at 10 µM at hAxl/IFN-γR1 is 70%.

In the case of `Cc1noc(C)c1CSc1ccccc1C(=O)N1CCN(Cc2cccs2)CC1` [1M], on hAxl/IFN-γR1, the remaining activity at 10 µM worked out at 20%.

In the case of `Cc1cc(CSc2ccccc2C(=O)NCCNc2ccccc2[N+](=O)[O-])on1` [1R], on hAxl/IFN-γR1, the remaining activity at 10 µM worked out at 40%.

On to `Nc1nc(Nc2ccc3c(c2)CC[C@@H](N2CCCC2)CC3)nn1-c1cc2c(nn1)-c1ccccc1CCC2` [BGB324], for which, at Tyro3, the IC50 was 1.4 µM.

Take `O=C(c1ccccc1SCc1ccsc1)N1CCN(Cc2ccncc2)CC1` [1H]: the remaining activity at 10 µM on hAxl/IFN-γR1 turned out to be 20%.

Regarding `Cc1cc(CSc2ccccc2C(=O)NCCNc2ccc(F)cc2C#N)on1` [Compound 10], the remaining activity at 10 µM at hAxl/IFN-γR1 amounted to 14%.

On to `COc1ccc2nc(CN3CCN(C(=O)c4ccccc4SCc4cc(C)on4)CC3)sc2c1` [Compound 24], for which the remaining activity at 10 µM on hAxl/IFN-γR1 was 90%.

As for `Cc1cc(CSc2nc(C)cc(C)c2C(=O)NCCNc2ccc(C(F)(F)F)cc2[N+](=O)[O-])on1` [Compound 4], on hAxl/IFN-γR1, the remaining activity at 10 µM is 83%.

Turning to `Cc1cc(CSc2ncncc2C(=O)NCCNc2ccc(C(F)(F)F)cc2[N+](=O)[O-])on1` [Compound 3], the remaining activity at 10 µM on hAxl/IFN-γR1 is 26%.

`Cc1nc(COc2ccccc2C(=O)N2CCN(Cc3ccncc3)CC2)cs1` [1P]: the remaining activity at 10 µM at hAxl/IFN-γR1 came out at 100%.

With `Cc1nc(CSc2ccccc2C(=O)N2CCN(Cc3ccccc3)CC2)cs1` [1E], the remaining activity at 10 µM at hAxl/IFN-γR1 was 60%.

Regarding `Cc1cc(CSc2ccccc2C(=O)N2CCN(Cc3ccc4c(c3)CCO4)CC2)no1` [1A], the remaining activity at 10 µM at hAxl/IFN-γR1 came out at 60%.

`Cc1cc(CSc2ccccc2C(=O)N2CCN(Cc3nc4ccccc4s3)CC2)no1` [1F]: at hAxl/IFN-γR1, the remaining activity at 10 µM came to 20%.

As to `Cc1cc(CSc2ccccc2C(=O)N2CCN(Cc3ccc(C#N)cc3)CC2)no1` [1C], the remaining activity at 10 µM on hAxl/IFN-γR1 worked out at 60%.

In the case of `Cc1cc(CSc2ccccc2C(=O)N2CCN(Cc3ccncc3)CC2)no1` [1D], the remaining activity at 10 µM at hAxl/IFN-γR1 came out at 50%.

Turning to `Cc1cc(CSc2ccccc2C(=O)N2CCN(Cc3nc4ccccc4o3)CC2)no1` [Compound 19], at hAxl/IFN-γR1, the remaining activity at 10 µM was determined as 41%.

For the compound `Cc1cc(CSc2ccccc2C(=O)N2CCN(CC(=O)Nc3ccccc3Cl)CC2)no1` [1N], the remaining activity at 10 µM on hAxl/IFN-γR1 was 30%.

On to `Cc1cc(CSc2ccccc2C(=O)NCCNc2nc3cc(C(F)(F)F)ccc3s2)on1` [Compound 7], for which the remaining activity at 10 µM on hAxl/IFN-γR1 turned out to be 33%.

With `Cc1cc(CSc2ccccc2C(=O)N2CCN(CC(=O)Nc3ccc(Cl)cn3)CC2)no1` [Compound 18], the remaining activity at 10 µM on hAxl/IFN-γR1 is 46%.

Consider `Cc1cc(CSc2ccccc2C(=O)N2CCN(Cc3nc4cccc(Cl)c4o3)CC2)no1` [Compound 20], for which the remaining activity at 10 µM on hAxl/IFN-γR1 worked out at 55%.

For the compound `Cc1cc(CSc2ccccc2C(=O)N2CCN(Cc3nc4ccccc4[nH]3)CC2)no1` [Compound 15], the remaining activity at 10 µM on hAxl/IFN-γR1 is 141%.

For the compound `Cc1cc(CSc2ccccc2C(=O)NCCNc2nc3ccccc3s2)on1` [Compound 5], the remaining activity at 10 µM on hAxl/IFN-γR1 is 13%.

Take `Cc1cc(CSc2ccccc2C(=O)NCCNc2nc3ccccc3o2)on1` [Compound 9]: the remaining activity at 10 µM on hAxl/IFN-γR1 came to 20%.

Take `Cc1cc(CSc2ccccc2C(=O)N2CCN(CC(=O)NCc3ccc(Cl)cc3)CC2)no1` [Compound 26]: the remaining activity at 10 µM at hAxl/IFN-γR1 was found to be 54%.

`Cc1cc(CSc2ncccc2C(=O)NCCNc2ccc(C(F)(F)F)cc2[N+](=O)[O-])on1` [Compound 2]: at hAxl/IFN-γR1, the remaining activity at 10 µM was 57%.

Turning to `Cc1cc(CSc2ccccc2C(=O)N2CCN(CC(=O)Nc3ccccc3F)CC2)no1` [Compound 16], the remaining activity at 10 µM on hAxl/IFN-γR1 was 109%.

In the case of `Cc1cc(CSc2ccccc2C(=O)NCCNc2ccc(C(F)(F)F)cn2)on1` [Compound 6], the remaining activity at 10 µM at hAxl/IFN-γR1 was 6%.

`Cc1cc(CSc2ccccc2C(=O)NCCNc2ccc(C(F)(F)F)cc2C#N)on1` [Compound 8]: the remaining activity at 10 µM at hAxl/IFN-γR1 came to 9%.

In the case of `Cc1cc(CSc2ccccc2C(=O)N2CCN(CC(=O)Nc3ccc(F)cc3)CC2)no1` [Compound 14], at hAxl/IFN-γR1, the remaining activity at 10 µM was determined as 110%.

As for `Cc1cc(CSc2ccccc2C(=O)NCCNc2ccc(C(F)(F)F)c(C#N)c2)on1` [Compound 11], at hAxl/IFN-γR1, the remaining activity at 10 µM worked out at 29%.

With `Cc1cc(CSc2ccccc2C(=O)NCCNc2ncccn2)on1` [Compound 27], the remaining activity at 10 µM at hAxl/IFN-γR1 is 16%.

Take `Cc1cc(CSc2ccccc2C(=O)NCCNc2nc(C(F)(F)F)cs2)on1` [Compound 13]: the remaining activity at 10 µM on hAxl/IFN-γR1 was 6%.

The term IC50 denotes the concentration that inhibits the measured activity by half.
